In patent publication US5652353A, “DNAs encoding tumor necrosis factor-α muteins” (priority 1990, dated 1997):

Tests used:
human p55-TNF-R = assay: Filter binding competition of 125I-TNFα on purified p55-TNF-R from HL60 cells; details: with respect to TNFα
Description: (§1) The filters were blocked with blocking buffer (50 mM Tris, 140 mM NaCl, 5 mM EDTA, 0.02% NaN3, 1% defatted milk powder) for 1.5 hours at room temperature. […] The filters were washed with blocking buffer (2× for 5 min.) and with H2 O (1× for 5 min.), air dried, and counted in a γ-counter.

human p75-TNF-R = assay: Filter binding competition of 125I-TNFα on purified p75-TNF-R from HL60 cells; details: for IC50: competition with 125I-TNFα; for Decrease in Affinity: with respect to TNFα
Description: as §1

[1] = tested on: U937 cells (predominantly but not exclusively p75-TNF-R); assay: Competition analysis: displacement of 125I-TNF-α by unlabeled mutant TNF on U937 cells; type: binding, human; details: for reduction of binding affinity for p75-TNF-R: relative to its binding affinity to p55-TNF-R
Description: (§2) Hep-2 [ATCC No. CCL 23], U937 [ATCC No. CRL 1593] and RAJI [ATCC No. CCL 86] cells were grown in RPMI 1640 medium, supplemented with 10% (v/v) inactivated .fetal calf serum, L-glutamine (2 mM), sodium pyruvate (1 mM), 2-mercaptoethanol (5×10^-5 M), 1% of a 100× mixture of non-essential amino acids [Gibro Laboratories, Paisley, GB] and gentamycine ([…]). The non-adherent cells (U937 and RAJI) were harvested after reaching a density of 1×10^6 cells/ml. For binding experiments, the adherent Hep-2 cells were grown to confluency, trypsinized, collected and seeded in large. Petri dishes (150 cm^2) at a density of 2.5×10^6 cells/ml. Subsequently, the dishes were placed in a CO2 -incubator overnight. Because Hep-2 cells are not strongly adherent, the cells could be harvested the same way as the non-adherent cells. Dulbecco's medium, supplemented with 10% inactivated newborn calf serum was used for L929 cell growth. […] A ten well dilution series of unlabeled mutant TNF ([…] to 0.004 μM) in concentration steps in multiples of 2 was set up in a microtiterplate. […] After addition of 2×10^6 cells, the total volume was 0.2 ml/well. The medium of incubation, reaction conditions and isolation of the cells were exactly the same as described above for the Scatchard analysis experiments. […] The following experimental data were used for such calculations: From each experiment shown in these tables, the KD value was calculated using the programm of Mc. Pherson et al. (1985).

Hep-2 cells = type: cell-based, human; details: in words; accuracy of assay a factor of 3
Description: (§3) The amount of protein was determined by the Biorad (Richmond, Calif., USA) protein dye reagent according to the instructions of the manufacturer. The purity of the TNF muteins was determined by SDS-PAGE. The cytotoxic activity on mouse L929 cells was determined using the standard L929 assay (Ruff and Gifford in "Lymphokines", ed. by E. Pick, Vol. 2, 235-275, Academic Press, 1981, Orlando, USA). The cytotoxicity assay on Hep-2 cells was performed the same way as the L929 assay with the only exception that cycloheximide (50 μg/ml) was added instead of actinomycin D.

mouse L929 cells = assay: Standard L929 cytotoxicity assay; type: cell-based; details: relative to TNF-α
Description: as §3

[2] = tested on: Hep-2 cells (only carry p55-TNF-R); assay: Competition analysis: displacement of 125I-TNF-α by unlabeled mutant TNF on Hep-2 cells; type: binding, human; details: for Mean dpm: Table C
Description: as §2

In the case of “Trp^32 -TNFα: TNF-α mutein with tryptophan substituted at position 32, SEQ ID No: 9”, the “Decrease in Affinity” value (human p55-TNF-R) is reported as 1.5 fold, the IC50 (human p75-TNF-R) is reported as 5 µg/mL and the “Decrease in Affinity” value (human p75-TNF-R) is reported as 500 fold. For the same substance, the “binding affinity for p75-TNF-R as share of its binding affinity to p55-TNF-R” value [1] was “about 3%”, the Mean dpm ([1]; Table B, experiment 1, U937 cells, concentration of mutant 1 × 10^-6) was 777 dpm and the Mean dpm ([1]; Table B, experiment 1, U937 cells, concentration of mutant 1 × 10^-9) was 1917 dpm. The Mean dpm ([1]; Table B, experiment 1, U937 cells, concentration of mutant 1.25 × 10^-7) was 1166 dpm, the Mean dpm ([1]; Table B, experiment 1, U937 cells, concentration of mutant 1.5 × 10^-8) was 1488 dpm and the Mean dpm ([1]; Table B, experiment 1, U937 cells, concentration of mutant 2 × 10^-6) was 628 dpm. The Mean dpm ([1]; Table B, experiment 1, U937 cells, concentration of mutant 2 × 10^-9) was 1698 dpm, the Mean dpm ([1]; Table B, experiment 1, U937 cells, concentration of mutant 3 × 10^-8) was 1377 dpm and the Mean dpm ([1]; Table B, experiment 1, U937 cells, concentration of mutant 4 × 10^-9) was 1655 dpm. It also gave a Mean dpm ([1]; Table B, experiment 1, U937 cells, concentration of mutant 5 × 10^-7) of 953 dpm, a Mean dpm ([1]; Table B, experiment 1, U937 cells, concentration of mutant 6 × 10^-8) of 1333 dpm and a Mean dpm ([1]; Table B, experiment 1, U937 cells, concentration of mutant 8 × 10^-9) of 1585 dpm. It also gave a Mean dpm ([1]; Table B, experiment 1, U937 cells, concentration of mutant […] 10^-7) of 1026 dpm, a Mean dpm ([1]; Table B, experiment 2, U937 cells, concentration of mutant 1.10^-6) of 357 dpm and a Mean dpm ([1]; Table B, experiment 2, U937 cells, concentration of mutant 1.2 × 10^-7) of 508 dpm. The Mean dpm ([1]; Table B, experiment 2, U937 cells, concentration of mutant 1.5 × 10^-8) was 636 dpm, the Mean dpm ([1]; Table B, experiment 2, U937 cells, concentration of mutant 2 × 10^-6) was 294 dpm and the Mean dpm ([1]; Table B, experiment 2, U937 cells, concentration of mutant 3 × 10^-8) was 585 dpm. For the same substance, the Mean dpm ([1]; Table B, experiment 2, U937 cells, concentration of mutant 4 × 10^9) was 653 dpm, the Mean dpm ([1]; Table B, experiment 2, U937 cells, concentration of mutant 5 × 10^-7) was 422 dpm and the Mean dpm ([1]; Table B, experiment 2, U937 cells, concentration of mutant 6 × 10^-8) was 546 dpm. The Mean dpm ([1]; Table B, experiment 2, U937 cells, concentration of mutant 8 × 10^-9) was 629 dpm, the Mean dpm ([1]; Table B, experiment 2, U937 cells, concentration of mutant […] 10^-7) was 479 dpm and the Mean dpm ([1]; Table B, experiment 3 (125I-TNF batch 2), U937 cells, concentration of mutant 1 × 10^-6) was 1192 dpm. For the same substance, the Mean dpm ([1]; Table B, experiment 3 (125I-TNF batch 2), U937 cells, concentration of mutant 1.25 × 10^-7) was 2387 dpm, the Mean dpm ([1]; Table B, experiment 3 (125I-TNF batch 2), U937 cells, concentration of mutant 1.5 × 10^-8) was 3620 dpm and the Mean dpm ([1]; Table B, experiment 3 (125I-TNF batch 2), U937 cells, concentration of mutant 2 × 10^-6) was 814 dpm. For the same substance, the Mean dpm ([1]; Table B, experiment 3 (125I-TNF batch 2), U937 cells, concentration of mutant 3 × 10^-8) was 3275 dpm, the Mean dpm ([1]; Table B, experiment 3 (125I-TNF batch 2), U937 cells, concentration of mutant 4 × 10^-9) was 4759 dpm and the Mean dpm ([1]; Table B, experiment 3 (125I-TNF batch 2), U937 cells, concentration of mutant 5 × 10^-7) was 1472 dpm. The Mean dpm ([1]; Table B, experiment 3 (125I-TNF batch 2), U937 cells, concentration of mutant 6 × 10^-8) was 3034 dpm, the Mean dpm ([1]; Table B, experiment 3 (125I-TNF batch 2), U937 cells, concentration of mutant 8 × 10^-9) was 4041 dpm and the Mean dpm ([1]; Table B, experiment 3 (125I-TNF batch 2), U937 cells, concentration of mutant […] 10^-7) was 1981 dpm. For the same substance, the “reduction of binding affinity for p75-TNF-R” value [1] was “approximately 33 fold”, the “biological activity (specific activity) on Hep-2 cells” value (Hep-2 cells) was “largely retained” and the “decrease of biological activity on L929 cells (factor)” value (mouse L929 cells) was “more than 100”.

In the case of “Ser^29 -TNFα: TNF-α mutein with serine substituted at position 29, SEQ ID No: 4”, the “Decrease in Affinity” value (human p55-TNF-R) is reported as 8.2 fold, the IC50 (human p75-TNF-R) is reported as 2.5 µg/mL and the “Decrease in Affinity” value (human p75-TNF-R) is reported as 250 fold. The Mean dpm ([2]; experiment 1, Hep-2 cells, concentration of mutant 1 × 10^-6) was 359 dpm, the Mean dpm ([2]; experiment 1, Hep-2 cells, concentration of mutant 1 × 10^-9) was 799 dpm and the Mean dpm ([2]; experiment 1, Hep-2 cells, concentration of mutant 1.25 × 10^-7) was 379 dpm. It also gave a Mean dpm ([2]; experiment 1, Hep-2 cells, concentration of mutant 2 × 10^-6) of 383 dpm, a Mean dpm ([2]; experiment 1, Hep-2 cells, concentration of mutant 2 × 10^-9) of 677 dpm and a Mean dpm ([2]; experiment 1, Hep-2 cells, concentration of mutant 3.2 × 10^-8) of 442 dpm. The Mean dpm ([2]; experiment 1, Hep-2 cells, concentration of mutant 4 × 10^-9) was 564 dpm, the Mean dpm ([2]; experiment 1, Hep-2 cells, concentration of mutant 5 × 10^-7) was 437 dpm and the Mean dpm ([2]; experiment 1, Hep-2 cells, concentration of mutant 6.4 × 10^-8) was 446 dpm. For the same substance, the Mean dpm ([2]; experiment 1, Hep-2 cells, concentration of mutant 8 × 10^-9) was 510 dpm, the Mean dpm ([2]; experiment 1, Hep-2 cells, concentration of mutant […] 10^-7) was 374 dpm and the Mean dpm ([2]; experiment 1, Hep-2 cells, concentration of mutant […] 10^-8) was 451 dpm. It also gave a Mean dpm ([2]; experiment 2, Hep-2 cells, concentration of mutant 1 × 10^-6) of 193 dpm, a Mean dpm ([2]; experiment 2, Hep-2 cells, concentration of mutant 1.2 × 10^-7) of 239 dpm and a Mean dpm ([2]; experiment 2, Hep-2 cells, concentration of mutant 1.5 × 10^-8) of 253 dpm. It also gave a Mean dpm ([2]; experiment 2, Hep-2 cells, concentration of mutant 2 × 10^-6) of 238 dpm, a Mean dpm ([2]; experiment 2, Hep-2 cells, concentration of mutant 3 × 10^-8) of 235 dpm and a Mean dpm ([2]; experiment 2, Hep-2 cells, concentration of mutant 4 × 10^-9) of 273 dpm. For the same substance, the Mean dpm ([2]; experiment 2, Hep-2 cells, concentration of mutant 5 × 10^-7) was 211 dpm, the Mean dpm ([2]; experiment 2, Hep-2 cells, concentration of mutant 6 × 10^-8) was 207 dpm and the Mean dpm ([2]; experiment 2, Hep-2 cells, concentration of mutant 8 × 10^-9) was 240 dpm. For the same substance, the “binding constant (KD) with Hep-2 cells compared with TNF-α” value ([2]; in words) was “almost the same as TNF-α”, the “binding affinity for p75-TNF-R as share of its binding affinity to p55-TNF-R” value [1] was “about 2%” and the Mean dpm ([1]; Table A, experiment 1, U937 cells, concentration of mutant 1 × 10^-6 [mol]) was 632 dpm. It also gave a Mean dpm ([1]; Table A, experiment 1, U937 cells, concentration of mutant 1 × 10^-9 [mol]) of 1869 dpm, a Mean dpm ([1]; Table A, experiment 1, U937 cells, concentration of mutant 1.25 × 10^-7 [mol]) of 1200 dpm and a Mean dpm ([1]; Table A, experiment 1, U937 cells, concentration of mutant 2 × 10^-6 [mol]) of 533 dpm. The Mean dpm ([1]; Table A, experiment 1, U937 cells, concentration of mutant 2 × 10^-9 [mol]) was 1779 dpm, the Mean dpm ([1]; Table A, experiment 1, U937 cells, concentration of mutant 3.2 × 10^-8 [mol]) was 1415 dpm and the Mean dpm ([1]; Table A, experiment 1, U937 cells, concentration of mutant 4 × 10^-9 [mol]) was 1719 dpm. It also gave a Mean dpm ([1]; Table A, experiment 1, U937 cells, concentration of mutant 5 × 10^-7 [mol]) of 949 dpm, a Mean dpm ([1]; Table A, experiment 1, U937 cells, concentration of mutant 6.4 × 10^-8 [mol]) of 1320 dpm and a Mean dpm ([1]; Table A, experiment 1, U937 cells, concentration of mutant 8 × 10^-9 [mol]) of 1708 dpm. It also gave a Mean dpm ([1]; Table A, experiment 1, U937 cells, concentration of mutant […] 10^-7 [mol]) of 983 dpm, a Mean dpm ([1]; Table A, experiment 1, U937 cells, concentration of mutant […] 10^-8 [mol]) of 1575 dpm and a Mean dpm ([1]; Table A, experiment 2, U937 cells, concentration of mutant 1 × 10^-6 [mol]) of 263 dpm. The Mean dpm ([1]; Table A, experiment 2, U937 cells, concentration of mutant 1.2 × 10^-7 [mol]) was 413 dpm, the Mean dpm ([1]; Table A, experiment 2, U937 cells, concentration of mutant 1.5 × 10^-8 [mol]) was 541 dpm and the Mean dpm ([1]; Table A, experiment 2, U937 cells, concentration of mutant 2 × 10^-6 [mol]) was 238 dpm. It also gave a Mean dpm ([1]; Table A, experiment 2, U937 cells, concentration of mutant 3 × 10^-8 [mol]) of 572 dpm, a Mean dpm ([1]; Table A, experiment 2, U937 cells, concentration of mutant 4 × 10^-9 [mol]) of 635 dpm and a Mean dpm ([1]; Table A, experiment 2, U937 cells, concentration of mutant 5 × 10^-7 [mol]) of 319 dpm. For the same substance, the Mean dpm ([1]; Table A, experiment 2, U937 cells, concentration of mutant 6 × 10^-8 [mol]) was 489 dpm, the Mean dpm ([1]; Table A, experiment 2, U937 cells, concentration of mutant 8 × 10^-9 [mol]) was 603 dpm and the Mean dpm ([1]; Table A, experiment 2, U937 cells, concentration of mutant […] 10^-7 [mol]) was 380 dpm. The “reduction of binding affinity for p75-TNF-R” value [1] was “approximately 50 fold”, the “biological activity (specific activity) on Hep-2 cells” value (Hep-2 cells) was “largely retained” and the “decrease of biological activity on L929 cells (factor)” value (mouse L929 cells) was “more than 100”.
